Assay results as given in the supplement of paper PMC10627819.

Assays:
Test in all cases: fitness (endpoint OD595 vs no drug) (fraction); higher = more growth
[1] = system: S. aureus Newman; conditions: one replicate
Procedure, shortened: (§1)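 Bacterial growth was followed in 384-well plates seeded at OD595 0.01, with 30 µl per well, or 55 µl for S. pneumoniae, in TSB, LB Lennox or CY at 37 °C. OD595 was read every 30 min for 14 h, and each reading had the first reading subtracted as background. Fitness is the background-corrected optical density at entry into stationary phase divided by the robust mean of the no-drug control wells. This ratio is capped at 1.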

[2] = system: S. pneumoniae D39V
Procedure, shortened: as §1

[3] = system: B. subtilis 168
Procedure, shortened: as §1

O=C(O)[C@H]1/C(=C/CO)O[C@@H]2CC(=O)N21 [Clavulanic acid] + Cc1cc(NS(=O)(=O)c2ccc(N)cc2)no1 [Sulfamethoxazol]
fitness
Conditions | partner 1 µg/mL | partner 2 µg/mL | partner 4 µg/mL
[1], first compound 0.03125 µg/mL | 0.994 | 0.974 | 0.983
[1], first compound 0.0625 µg/mL | ≥ 1 | ≥ 1 | ≥ 1
[1], first compound 0.125 µg/mL | 0.951 | 0.929 | 0.929
[2], first compound 0.5 µg/mL | 0.985 | 0.982 | 0.949
[2], first compound 1 µg/mL | 0.914 | 0.93 | 0.856
[2], first compound 2 µg/mL | 0.836 | 0.904 | 0.786
[3], first compound 1.5 µg/mL | 0.853 | 0.883 | 0.93
[3], first compound 3 µg/mL | 0.816 | 0.839 | 0.943
[3], first compound 6 µg/mL | 0.704 | 0.733 | 0.798

[3], partner 0.5 µg/mL, one replicate
Conditions | fitness
first compound 1.5 µg/mL | 0.974
first compound 3 µg/mL | 0.903
first compound 6 µg/mL | 0.952

O=C(O)[C@H]1/C(=C/CO)O[C@@H]2CC(=O)N21 [Clavulanic acid] + Cc1ncc([N+](=O)[O-])n1CCO [Metronidazole]
fitness
Conditions | partner 0.625 µg/mL | partner 1.073 µg/mL | partner 1.25 µg/mL | partner 2.145 µg/mL | partner 2.5 µg/mL | partner 4.29 µg/mL | partner 5 µg/mL
[1], first compound 0.03125 µg/mL | 0.976 | – | 0.96 | – | 0.996 | – | –
[1], first compound 0.0625 µg/mL | 0.94 | – | ≥ 1 | – | ≥ 1 | – | –
[1], first compound 0.125 µg/mL | 0.85 | – | 0.891 | – | 0.852 | – | –
[2], first compound 0.5 µg/mL | – | 0.946 | ≥ 1 | 0.946 | ≥ 1 | 0.858 | ≥ 1
[2], first compound 1 µg/mL | – | 0.931 | 0.957 | 0.926 | 0.971 | 0.89 | 0.959
[2], first compound 2 µg/mL | – | 0.839 | 0.801 | 0.779 | 0.828 | 0.829 | 0.805
[3], first compound 1.5 µg/mL | 0.93 | – | 0.97 | – | 0.976 | – | –
[3], first compound 3 µg/mL | 0.909 | – | 0.89 | – | 0.886 | – | –
[3], first compound 6 µg/mL | 0.794 | – | 0.762 | – | 0.772 | – | –

O=C(O)[C@H]1/C(=C/CO)O[C@@H]2CC(=O)N21 [Clavulanic acid] + Cc1onc(-c2ccccc2)c1C(=O)N[C@@H]1C(=O)N2[C@@H]1SC(C)(C)[C@@H]2C(=O)O [Oxacillin]
Conditions | fitness
[1], first compound 0.03125 µg/mL, partner 0.0156 µg/mL | 0.861
[1], first compound 0.03125 µg/mL, partner 0.0312 µg/mL | 0.801
[1], first compound 0.03125 µg/mL, partner 0.0625 µg/mL | 0.628
[1], first compound 0.0625 µg/mL, partner 0.0156 µg/mL | 0.785
[1], first compound 0.0625 µg/mL, partner 0.0312 µg/mL | 0.784
[1], first compound 0.0625 µg/mL, partner 0.0625 µg/mL | 0.564
[1], first compound 0.125 µg/mL, partner 0.0156 µg/mL | 0.749
[1], first compound 0.125 µg/mL, partner 0.0312 µg/mL | 0.697
[1], first compound 0.125 µg/mL, partner 0.0625 µg/mL | 0.584
[2], first compound 0.5 µg/mL, partner 0.005 µg/mL | 0.994
[2], first compound 0.5 µg/mL, partner 0.01 µg/mL | 0.953
[2], first compound 0.5 µg/mL, partner 0.02 µg/mL | 0.943
[2], first compound 0.5 µg/mL, partner 0.04 µg/mL | 0.401
[2], first compound 1 µg/mL, partner 0.005 µg/mL | 0.952
[2], first compound 1 µg/mL, partner 0.01 µg/mL | 0.888
[2], first compound 1 µg/mL, partner 0.02 µg/mL | 0.837
[2], first compound 1 µg/mL, partner 0.04 µg/mL | 0.228
[2], first compound 2 µg/mL, partner 0.005 µg/mL | 0.846
[2], first compound 2 µg/mL, partner 0.01 µg/mL | 0.749
[2], first compound 2 µg/mL, partner 0.04 µg/mL | 0.0623
[3], first compound 1.5 µg/mL, partner 0.002 µg/mL | 0.917
[3], first compound 1.5 µg/mL, partner 0.004 µg/mL | 0.956
[3], first compound 1.5 µg/mL, partner 0.008 µg/mL | 0.962
[3], first compound 3 µg/mL, partner 0.002 µg/mL | 0.901
[3], first compound 3 µg/mL, partner 0.004 µg/mL | 0.899
[3], first compound 3 µg/mL, partner 0.008 µg/mL | 0.866
[3], first compound 6 µg/mL, partner 0.002 µg/mL | 0.827
[3], first compound 6 µg/mL, partner 0.004 µg/mL | 0.788
[3], first compound 6 µg/mL, partner 0.008 µg/mL | 0.762

fitness, [3], one replicate
Conditions | partner 0.0078 µg/mL | partner 0.0155 µg/mL | partner 0.031 µg/mL | partner 0.075 µg/mL | partner 0.15 µg/mL | partner 0.3 µg/mL
first compound 1.5 µg/mL | 0.929 | 0.903 | 0.926 | 0.188 | 0.058 | 0.0448
first compound 3 µg/mL | 0.958 | 0.937 | 0.973 | 0.0579 | 0.0634 | 0.0505
first compound 6 µg/mL | 0.89 | 0.861 | 0.806 | 0.061 | 0.058 | 0.0518
